Measured values as given in the supplement of paper PMC11208160.

Test: recombinant barcode read abundance after kanamycin selection (control-corrected) (log10(CPM+1)); higher = more efficient recombination; sequences stand for … in AGTGCAGAGAAAATCGGCCAGTTTTCTCTGCCTGCAGTCCGCATGCCGT…AGATTTATGCAGCGGACTGCCTTTCTCCCAAAGTGATAAACCGGACAGTATCATGGACCGGTTTTCCCGGTAATCCGTATTTGCAAGGTTGGTTTCACT; site = the 11-nt target
How it was run: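 Recombination efficiency draws on barcodes counted at recombinant junctions in a pooled E. coli screen of targets paired with IS621 bridge RNA target-binding loops. The counts were converted to counts per million, averaged and corrected against the chloramphenicol/ampicillin LB agar control, then reported as log10(CPM+1). Selection plates held chloramphenicol/ampicillin/kanamycin with 0.1 mM IPTG, with two replicates per condition.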
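Further: IS621 recombinase and bridge RNA in Escherichia coli cells.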

Compared with “GGAGGAACTTGGGTTCTAACCTGTTGCCT (site GGAGGAACTAG)”, “GGAGGAACTTGGGTTCTAACCTGTTGCCT (site GGAGGTACTAG)” is lower in “recombinant barcode read abundance (log10)” value: 2.39 for the first, 0.1 for the second.

Going from “GGAGGACCTTGGGTTCTAACCTGTTGCTT (site GGAAGACCTTA)” to “GGAGGACCTTGGGTTCTAACCTGTTGCTT (site GGAGGACCTAA)”, the “recombinant barcode read abundance (log10)” value rises from 0.19 to 2.4.

Going from “GGAGGGACTTGGGTTCTAACCTGTTGCCT (site GAAGGGACTAG)” to “GGAGGGACTTGGGTTCTAACCTGTTGCCT (site GCAGGGACTAG)”, the “recombinant barcode read abundance (log10)” value falls from 1.38 to 0.658.

First: GGAGGGACTTGGGTTCTAACCTGTTGCCT (site GGAGGGACTAG)
Second: GGAGGGACTTGGGTTCTAACCTGTTGCCT (site GTAGGGACTAG)
The “recombinant barcode read abundance (log10)” value of the first is higher: 2.69 for the first, 1.7 for the second.

First: GGAGGTACTTGGGTTCTAACCTGTTGCCT (site GGAGGAACTAG)
Second: GGAGGTACTTGGGTTCTAACCTGTTGCCT (site GGAGGTACTAG)
The “recombinant barcode read abundance (log10)” value of the first is lower: 0.0658 for the first, 1.17 for the second.

First: GGAGGTCCTTGGGTTCTAACCTGTTGCTA (site GGAGGTCCTTA)
Second: GGAGGTCCTTGGGTTCTAACCTGTTGCTA (site TAAGGTCCTTA)
The “recombinant barcode read abundance (log10)” value of the first is higher: 2.08 for the first, 0.0399 for the second.

Going from “GGAGTACCTTGGGTTCTAACCTGTTGCAT (site CCTCATACTTG)” to “GGAGTACCTTGGGTTCTAACCTGTTGCAT (site GGAGTACCTAT)”, the “recombinant barcode read abundance (log10)” value rises from 0.0895 to 2.12.

Going from “GGAGTTGCTTGGGTTCTAACCTGTTGCCT (site GGAGATTCTAG)” to “GGAGTTGCTTGGGTTCTAACCTGTTGCCT (site GGAGTTGCTAG)”, the “recombinant barcode read abundance (log10)” value rises from 0.273 to 2.27.

Going from “GGATACACTTGGGTTCTAACCTGTTGCCT (site GGATACACTAG)” to “GGATACACTTGGGTTCTAACCTGTTGCCT (site GGTTACACTAG)”, the “recombinant barcode read abundance (log10)” value falls from 2.06 to 0.395.

“GGATCCACTTGGGTTCTAACCTGTTGCCA (site GGATACACTTG)” and “GGATCCACTTGGGTTCTAACCTGTTGCCA (site GGATCCACTTG)” are within 0.2 log units of each other in “recombinant barcode read abundance (log10)” value: 0.049 for the first, 0.117 for the second.

“GGATCCACTTGGGTTCTAACCTGTTGCCA (site GGATGCACTTG)” and “GGATCCACTTGGGTTCTAACCTGTTGCCA (site GGATTCACTTG)” are within 0.2 log units of each other in “recombinant barcode read abundance (log10)” value: 0.0631 for the first, 0.0388 for the second.

Compared with “GGATTCCCTTGGGTTCTAACCTGTTGCCA (site GGAGTCCCTTC)”, “GGATTCCCTTGGGTTCTAACCTGTTGCCA (site GGATTCCCTTG)” is higher in “recombinant barcode read abundance (log10)” value: 0.242 for the first, 1.15 for the second.

“GGATTTACTTGGGTTCTAACCTGTTGCCT (site GGATATACTAG)” and “GGATTTACTTGGGTTCTAACCTGTTGCCT (site GGATTTACTAG)” are within 0.2 log units of each other in “recombinant barcode read abundance (log10)” value: 0.0849 for the first, 0.276 for the second.

“GGCAAGACTTGGGTTCTAACCTGTTGCCT (site GGAAAGACTAG)” and “GGCAAGACTTGGGTTCTAACCTGTTGCCT (site GGCAAGACTAG)” are within 0.2 log units of each other in “recombinant barcode read abundance (log10)” value: 0 for the first, 0.185 for the second.

“GGCAAGACTTGGGTTCTAACCTGTTGCCT (site GGGAAGACTAG)” and “GGCAAGACTTGGGTTCTAACCTGTTGCCT (site GGTAAGACTAG)” are within 0.2 log units of each other in “recombinant barcode read abundance (log10)” value: 0.154 for the first, 0.0715 for the second.

First: GGCACGGCTTGGGTTCTAACCTGTTGCCT (site GGCACAGCTAG)
Second: GGCACGGCTTGGGTTCTAACCTGTTGCCT (site GGCACCGCTAG)
The “recombinant barcode read abundance (log10)” value of the first is higher: 0.519 for the first, 0.0995 for the second.

“GGCACGGCTTGGGTTCTAACCTGTTGCCT (site GGCACGGCTAG)” and “GGCACGGCTTGGGTTCTAACCTGTTGCCT (site GGCACTGCTAG)” are within 0.2 log units of each other in “recombinant barcode read abundance (log10)” value: 0.134 for the first, 0.11 for the second.

“GGCAGGTCTTGGGTTCTAACCTGTTGCTT (site GGCAGATCTAA)” and “GGCAGGTCTTGGGTTCTAACCTGTTGCTT (site GGCAGCTCTAA)” are within 0.2 log units of each other in “recombinant barcode read abundance (log10)” value: 0.163 for the first, 0.0728 for the second.

Going from “GGCAGGTCTTGGGTTCTAACCTGTTGCTT (site GGCAGGTCTAA)” to “GGCAGGTCTTGGGTTCTAACCTGTTGCTT (site GGCAGTTCTAA)”, the “recombinant barcode read abundance (log10)” value falls from 0.795 to 0.044.

“GGCAGTTCTTGGGTTCTAACCTGTTGCTT (site GGCAGATCTAA)” and “GGCAGTTCTTGGGTTCTAACCTGTTGCTT (site GGCAGCTCTAA)” are within 0.2 log units of each other in “recombinant barcode read abundance (log10)” value: 0.0437 for the first, 0.0661 for the second.

“GGCAGTTCTTGGGTTCTAACCTGTTGCTT (site GGCAGGTCTAA)” and “GGCAGTTCTTGGGTTCTAACCTGTTGCTT (site GGCAGTTCTAA)” are within 0.2 log units of each other in “recombinant barcode read abundance (log10)” value: 0.0765 for the first, 0.0537 for the second.

Compared with “GGCCCCTCTTGGGTTCTAACCTGTTGCCG (site CGCGCCTCTCG)”, “GGCCCCTCTTGGGTTCTAACCTGTTGCCG (site GGCCCCTCTCG)” is higher in “recombinant barcode read abundance (log10)” value: 0.368 for the first, 1.8 for the second.

“GGCCGAACTTGGGTTCTAACCTGTTGCCT (site AGCCGAACTAG)” and “GGCCGAACTTGGGTTCTAACCTGTTGCCT (site CGCCGAACTAG)” are within 0.2 log units of each other in “recombinant barcode read abundance (log10)” value: 0.112 for the first, 0.0639 for the second.

“GGCCGAACTTGGGTTCTAACCTGTTGCCT (site GGCCGAACTAG)” and “GGCCGAACTTGGGTTCTAACCTGTTGCCT (site TGCCGAACTAG)” are within 0.2 log units of each other in “recombinant barcode read abundance (log10)” value: 0.211 for the first, 0.144 for the second.

First: GGCCGGGCTTGGGTTCTAACCTGTTGCGG (site GCCCGGGCTCC)
Second: GGCCGGGCTTGGGTTCTAACCTGTTGCGG (site GGCCGGGCTCC)
The “recombinant barcode read abundance (log10)” value of the first is lower: 0.286 for the first, 0.906 for the second.

Compared with “GGCCTCCCTTGGGTTCTAACCTGTTGCAT (site CGCCTCCCTAT)”, “GGCCTCCCTTGGGTTCTAACCTGTTGCAT (site GGCCTCCCTAT)” is higher in “recombinant barcode read abundance (log10)” value: 0.0328 for the first, 0.743 for the second.

First: GGCGACCCTTGGGTTCTAACCTGTTGCCT (site GGCGACCCTAG)
Second: GGCGACCCTTGGGTTCTAACCTGTTGCCT (site GGCGTCACTAG)
The “recombinant barcode read abundance (log10)” value of the first is higher: 0.99 for the first, 0.143 for the second.

Compared with “GGCGAGTCTTGGGTTCTAACCTGTTGCTA (site GACGAGTCTTA)”, “GGCGAGTCTTGGGTTCTAACCTGTTGCTA (site GGCGAGTCTTA)” is higher in “recombinant barcode read abundance (log10)” value: 1.4 for the first, 1.64 for the second.

Going from “GGCGCATCTTGGGTTCTAACCTGTTGCCT (site GGCGCATCTAG)” to “GGCGCATCTTGGGTTCTAACCTGTTGCCT (site GGCGCGTCTAG)”, the “recombinant barcode read abundance (log10)” value falls from 0.417 to 0.207.

Going from “GGCGGAGCTTGGGTTCTAACCTGTTGCCG (site CTGCACCCTTA)” to “GGCGGAGCTTGGGTTCTAACCTGTTGCCG (site GGCGGAGCTCG)”, the “recombinant barcode read abundance (log10)” value rises from 0.0863 to 1.27.

Compared with “GGCGGCTCTTGGGTTCTAACCTGTTGCCT (site ACATAAGCTTA)”, “GGCGGCTCTTGGGTTCTAACCTGTTGCCT (site GGCGGCTCTAG)” is higher in “recombinant barcode read abundance (log10)” value: 0.103 for the first, 1.42 for the second.

“GGCTATGCTTGGGTTCTAACCTGTTGCCT (site GACTATGCTAG)” and “GGCTATGCTTGGGTTCTAACCTGTTGCCT (site GCCTATGCTAG)” are within 0.2 log units of each other in “recombinant barcode read abundance (log10)” value: 0.143 for the first, 0.106 for the second.

“GGCTATGCTTGGGTTCTAACCTGTTGCCT (site GGCTATGCTAG)” and “GGCTATGCTTGGGTTCTAACCTGTTGCCT (site GTCTATGCTAG)” are within 0.2 log units of each other in “recombinant barcode read abundance (log10)” value: 0.175 for the first, 0.0729 for the second.

First: GGCTGAGCTTGGGTTCTAACCTGTTGCCT (site GACTGAGCTAC)
Second: GGCTGAGCTTGGGTTCTAACCTGTTGCCT (site GGCTGAGCTAG)
The “recombinant barcode read abundance (log10)” value of the first is lower: 0.0838 for the first, 0.856 for the second.

“GGCTGATCTTGGGTTCTAACCTGTTGCCT (site AGCTGATCTAG)” and “GGCTGATCTTGGGTTCTAACCTGTTGCCT (site CGCTGATCTAG)” are within 0.2 log units of each other in “recombinant barcode read abundance (log10)” value: 0.126 for the first, 0.309 for the second.

“GGCTGATCTTGGGTTCTAACCTGTTGCCT (site GGCTGATCTAG)” and “GGCTGATCTTGGGTTCTAACCTGTTGCCT (site TGCTGATCTAG)” are within 0.2 log units of each other in “recombinant barcode read abundance (log10)” value: 0.382 for the first, 0.216 for the second.

Going from “GGCTGCACTTGGGTTCTAACCTGTTGCCT (site GGCGGTACTAG)” to “GGCTGCACTTGGGTTCTAACCTGTTGCCT (site GGCTGCACTAG)”, the “recombinant barcode read abundance (log10)” value rises from 0.504 to 1.17.

“GGCTGGGCTTGGGTTCTAACCTGTTGCCG (site GGCTGGGCTCG)” and “GGCTGGGCTTGGGTTCTAACCTGTTGCCG (site GGTTGGGCTCT)” are within 0.2 log units of each other in “recombinant barcode read abundance (log10)” value: 0.125 for the first, 0.194 for the second.

Going from “GGCTGTTCTTGGGTTCTAACCTGTTGCCT (site GACTGTTCTAG)” to “GGCTGTTCTTGGGTTCTAACCTGTTGCCT (site GCCTGTTCTAG)”, the “recombinant barcode read abundance (log10)” value rises from 0.195 to 0.425.

“GGCTGTTCTTGGGTTCTAACCTGTTGCCT (site GGCTGTTCTAG)” and “GGCTGTTCTTGGGTTCTAACCTGTTGCCT (site GTCTGTTCTAG)” are within 0.2 log units of each other in “recombinant barcode read abundance (log10)” value: 0.334 for the first, 0.242 for the second.

First: GGCTTCCCTTGGGTTCTAACCTGTTGCCT (site GGCATCCCTAG)
Second: GGCTTCCCTTGGGTTCTAACCTGTTGCCT (site GGCCTCCCTAG)
The “recombinant barcode read abundance (log10)” value of the first is lower: 0.299 for the first, 0.855 for the second.

Going from “GGCTTCCCTTGGGTTCTAACCTGTTGCCT (site GGCGTCCCTAG)” to “GGCTTCCCTTGGGTTCTAACCTGTTGCCT (site GGCTTCCCTAG)”, the “recombinant barcode read abundance (log10)” value rises from 0.141 to 0.415.

First: GGCTTGACTTGGGTTCTAACCTGTTGCCT (site CCAGGTGCTCC)
Second: GGCTTGACTTGGGTTCTAACCTGTTGCCT (site GGCTTGACTAG)
The “recombinant barcode read abundance (log10)” value of the first is lower: 0.304 for the first, 0.694 for the second.
